Results from PMC4425204 (Bioorganic & medicinal chemistry letters, 2014).

Target: FabB (Escherichia coli, UniProt P0A953)
Assay: NMR wLOGSY assay to evaluate FabB binding
Set-up: species or system E. coli

Sequence of FabB (P0A953 whole entry): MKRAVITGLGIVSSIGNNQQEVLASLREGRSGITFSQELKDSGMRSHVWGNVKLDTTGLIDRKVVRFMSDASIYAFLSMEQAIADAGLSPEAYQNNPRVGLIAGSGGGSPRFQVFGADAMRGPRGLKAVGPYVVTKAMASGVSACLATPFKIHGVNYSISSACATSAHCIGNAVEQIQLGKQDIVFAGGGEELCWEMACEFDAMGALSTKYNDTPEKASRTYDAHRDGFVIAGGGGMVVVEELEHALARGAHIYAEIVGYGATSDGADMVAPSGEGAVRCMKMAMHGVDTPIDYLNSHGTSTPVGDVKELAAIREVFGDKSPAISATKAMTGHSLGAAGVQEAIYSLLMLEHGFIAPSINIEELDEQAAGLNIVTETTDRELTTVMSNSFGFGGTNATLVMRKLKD

SMILES: O=c1oc2cc(Cl)ccc2n1CN(CC1CCOC1)C1CC1 (stereo not shown) [compound 1]
- FabB binding in NMR wLOGSY assay: exhibited binding
